Positions of bridges follow the written chain, without caps; N, C: chain ends. Non-standard residues stand in square brackets, D forms with d. Chains are numbered I, II in the order given. No end group written: not given here. bAib = not defined here; Aib = CC(C)(N)C(=O)O; βAla = NCCC(=O)O
test system: Normal Kunming (KM) mice; experiment: multiple OGTT (mOGTT): hypoglycemic duration after a single administration; assay type: in vivo; details: monomeric peptides, single injection at the same dose (1.126 nmol), subcutaneous
Description: • 1. Methods: Normal Kunming (KM) mice (purchased from Guangdong Animal Center) were used for oral glucose tolerance test (OGTT) to obtain the hypoglycemic activity and durability of drug. […] The blood glucose meter and blood glucose test paper were from Bayer […]. The average blood glucose of each group was used as an evaluation standard: When the average blood glucose of experimental group was higher than that of the NaCl control group for two times, the measurement stopped and the hypoglycemic period compared to the blank control group was the effective duration. • 2. Results • 2.1 single OGTTs: after a single administration, the mice were orally administered glucose once and measured the blood glucose from the tail blood at 0, 10, 20, 40, 60 and 120 min. […] The duration of each monomer group was about 1⁄2-1⁄4 of the duration of its corresponding dimer group. […] Therefore, the 2G3 peptide was selected for treating type II diabetes (T2D) in vivo and subsequent experiments.

Compared with “His-aAib-Glu-Gly-Thr-Phe-Thr-Cys-Asp-Val-Ser-Ser-Tyr-Leu-Glu-Gly-Gln-Ala-Ala-Lys-Glu-Phe-Ile-Ala-Trp-Leu-Val-Arg-aAib-Arg-NH2 (H[Aib]EGTFTCDVSSYLEGQAAKEFIAWLVR[Aib]R-NH2; N-terminus assumed; SMILES CC[C@H](C)[C@H](NC(=O)[C@H](Cc1ccccc1)NC(=O)[C@H](CCC(=O)O)NC(=O)[C@H](CCCCN)NC(=O)[C@H](C)NC(=O)[C@H](C)NC(=O)[C@H](CCC(N)=O)NC(=O)CNC(=O)[C@H](CCC(=O)O)NC(=O)[C@H](CC(C)C)NC(=O)[C@H](Cc1ccc(O)cc1)NC(=O)[C@H](CO)NC(=O)[C@H](CO)NC(=O)[C@@H](NC(=O)[C@H](CC(=O)O)NC(=O)[C@H](CS)NC(=O)[C@@H](NC(=O)[C@H](Cc1ccccc1)NC(=O)[C@@H](NC(=O)CNC(=O)[C@H](CCC(=O)O)NC(=O)C(C)(C)NC(=O)[C@@H](N)Cc1c[nH]cn1)[C@@H](C)O)[C@@H](C)O)C(C)C)C(=O)N[C@@H](C)C(=O)N[C@@H](Cc1c[nH]c2ccccc12)C(=O)N[C@@H](CC(C)C)C(=O)N[C@H](C(=O)N[C@@H](CCCNC(=N)N)C(=O)NC(C)(C)C(=O)N[C@@H](CCCNC(=N)N)C(N)=O)C(C)C) [G8 series 64]”, “His-βAib-Glu-Gly-Thr-Phe-Thr-Ser-Asp-Val-Cys-Ser-Tyr-Leu-Glu-Gly-Gln-Ala-Ala-Lys[N-ϵ-(N-α-oleoyl)]-Glu-Phe-Ile-Ala-Trp-Leu-Val-Arg-Gly-Arg-Gly-NH2 (HXEGTFTSDVCSYLEGQAAXEFIAWLVRGRG; βAib; oleoyl on Lys; C-terminal amide; Sequence is synthesized; (2)..(2) Xaa is bAib; (20)..(20) Xaa is 26Lys[N-e-(N-a-oleoyl-L-g-glutamyl)]; (31)..(31) N-terminal) [G4 series 30]” is higher in “Hypoglycemic” value: 2 days for the first, 6 days for the second.

Compared with “His-aAib-Glu-Gly-Thr-Phe-Thr-Ser-Asp-Val-Ser-Cys-Tyr-Leu-Glu-Gly-Gln-Ala-Ala-Lys[N-ϵ-(N-α-Palmitoyl-L-γ-glutamyl)]-Glu-Phe-Ile-Ala-Trp-Leu-Val-Arg-Gly-Arg-Gly-NH2 (HXEGTFTSDVSCYLEGQAAXEFIAWLVRGRG; Aib; palmitoyl-gamma-Glu on Lys; C-terminal amide; Sequence is synthesized; (2)..(2) Xaa is aAib; (20)..(20) Xaa is 26Lys[N-e-(N-a-palmitoyl-L-g-glutamyl)]; (31)..(31) N-terminal) [G6 series 48]”, “His-Ala-Glu-Gly-Thr-Phe-Thr-Ser-Asp-Val-Ser-Cys-Tyr-Leu-Glu-Gly-Gln-Ala-Ala-Lys[N-ϵ-(N-α-oleoyl)]-Glu-Phe-Ile-Ala-Trp-Leu-Val-Arg-Gly-Arg-Gly-OH (HAEGTFTSDVSCYLEGQAAXEFIAWLVRGRG; not fully specified; oleoyl on Lys; C-terminal acid; Sequence is synthesized; (20)..(20) Xaa is 26Lys[N-e-(N-a-oleoyl-L-g-glutamyl)]; (31)..(31) C-terminal) [G4 series 32]” is lower in “Hypoglycemic” value: 7 days for the first, 5 days for the second.

First: His-aAib-Glu-Gly-Thr-Phe-Thr-Ser-Asp-Val-Ser-Cys-Tyr-Leu-Glu-Gly-Gln-Ala-Ala-Lys-Glu-Phe-Ile-Ala-Trp-Leu-Val-Arg-aAib-Arg-NH2 (H[Aib]EGTFTSDVSCYLEGQAAKEFIAWLVR[Aib]R-NH2; also: disulfide-linked homodimer via Cys) [G7 series 51]
Second: His-Ala-Glu-Gly-Thr-Phe-Thr-Ser-Asp-Val-Ser-Cys-Tyr-Leu-Glu-Gly-Gln-Ala-Ala-Lys[N-ϵ-(N-α-Palmitoyl-L-γ-glutamyl)]-Glu-Phe-Ile-Ala-Trp-Leu-Val-Lys[N-ϵ-(N-α-Palmitoyl-L-γ-glutamyl)]-Gly-Arg-Gly-OH (HAEGTFTSDVSCYLEGQAAXEFIAWLVXGRG; two palmitoyl-gamma-Glu on Lys; C-terminal acid; Sequence is synthesized; (20)..(20) Xaa is 26Lys[N-e-(N-a-palmitoyl-L-g-glutamyl)]; (28)..(28) Xaa is 26Lys[N-e-(N-a-palmitoyl-L-g-glutamyl)]; (31)..(31) C-terminal) [G5 series 40]
The “Hypoglycemic” value of the first is higher: 3 days for the first, 1 days for the second.

Going from “His-Ala-Glu-Gly-Thr-Phe-Thr-Ser-Asp-Val-Ser-Cys--Tyr-Leu-Glu-Gly-Gln-Ala-Ala-Lys[N-ϵ-(N-α-oleoyl-L-γ-glutamyl)]-Glu-Phe-Ile-Ala-Trp-Leu-Val-Arg-Gly-Arg-Gly-NH2 (HAEGTFTSDVSCYLEGQAAXEFIAWLVRGRG; oleoyl-γ-glutamyl on Lys; C-terminal amide; Sequence is synthesized; (20)..(20) Xaa is 26Lys[N-e-(N-a-oleoyl-L-g-glutamyl)]; (31)..(31) N-terminal) [G3 series 23]” to “His-βAla-Glu-Gly-Thr-Phe-Thr-Ser-Asp-Val-Ser-Cys-Tyr-Leu-Glu-Gly-Gln-Ala-Ala-Lys-Glu-Phe-Ile-Ala-Trp-Leu-Val-Arg-βAla-Arg-NH2 (H[βAla]EGTFTSDVSCYLEGQAAKEFIAWLVR[βAla]R-NH2; also: disulfide-linked homodimer via Cys12) [G7 series 55]”, the “Hypoglycemic” value falls from 7 days to 2 days.

With “His-βAla-Glu-Gly-Thr-Phe-Thr-Ser-Asp-Val-Cys-Ser-Tyr-Leu-Glu-Gly-Gln-Ala-Ala-Lys[N-ϵ-(N-α-oleoyl-L-γ-glutamyl)]-Glu-Phe-Ile-Ala-Trp-Leu-Val-Arg-Gly-Arg-Gly-NH2 (HXEGTFTSDVCSYLEGQAAXEFIAWLVRGRG; β-amino acid; oleoyl-γ-glutamyl on Lys; C-terminal amide; Sequence is synthesized; (2)..(2) Xaa is bAla; (20)..(20) Xaa is 26Lys[N-e-(N-a-oleoyl-L-g-glutamyl)]; (31)..(31) N-terminal) [G2 series 18]” the “Hypoglycemic” value was 5 days.

same assay, conditions: single injection at the same dose (1.126 nmol), subcutaneous

Going from “2G8 series 58: disulfide-linked homodimer of monomer SEQ ID NO: 58 (HAEGTFTCDVSSYLEGQAAXEFIAWLVRGRG; disulfide-linked homodimer; Sequence is synthesized; (20)..(20) Xaa is 26Lys[N-e-(N-a-oleoyl-L-g-glutamyl)]; (31)..(31) C-terminal)” to “2G7 series 54: disulfide-linked homodimer of monomer SEQ ID NO: 54 (H[bAib]EGTFTSDVSCYLEGQAAKEFIAWLVR[bAib]R-NH2; reading uncertain; also: disulfide-linked homodimer, disulfide at 12, other end not in the chain, printed as His-βAib-Glu-Gly-Thr-Phe-Thr-Ser-Asp-Val-Ser-Cys-Tyr-Leu-Glu-Gly-Gln-Ala-Ala-Lys-Glu-Phe-Ile-Ala-Trp-Leu-Val-Arg-βAib-Arg-NH2)”, the “Hypoglycemic duration” value rises from 3 days to 5 days.

Compared with “2G4 series 35: disulfide-linked homodimer of monomer SEQ ID NO: 35 (HAEGTFTSDVSCYLEGQAAXEFIAWLVRGRG; not fully specified; disulfide-linked homodimer; Sequence is synthesized; (20)..(20) Xaa is 26Lys[N-e-(N-a-palmitoyl-L-g-glutamyl)]; (31)..(31) N-terminal)”, “2G5 series 41: disulfide-linked homodimer of monomer SEQ ID NO: 41 (HAEGTFTSDVSCYLEGQAAXEFIAWLVXGRG; disulfide-linked homodimer; Sequence is synthesized; (20)..(20) Xaa is 26Lys[N-e-(N-a-palmitoyl-L-g-glutamyl)]; (28)..(28) Xaa is 26Lys[N-e-(N-a-palmitoyl-L-g-glutamyl)]; (31)..(31) N-terminal)” is lower in “Hypoglycemic duration” value: 15 days for the first, 5 days for the second.

First: 2G2 series 16: disulfide-linked homodimer of monomer SEQ ID NO: 16 (chain 1 H[bAib]EGTFTSDVCSYLEGQAAKEFIAWLVR[bAib]R; chain 2 H[bAib]EGTFTSDVCSYLEGQAAKEFIAWLVR[bAib]R; disulfide I:11-II:11 (inferred); not fully specified; reading uncertain)
Second: 2G8 series 69: disulfide-linked homodimer of monomer SEQ ID NO: 69 (H[βAla]EGTFTCDVSSYLEGQAAKEFIAWLVR[βAla]R; also: disulfide-linked homodimer)
The “Hypoglycemic duration” value of the first is higher: 4 days for the first, 3 days for the second.

Going from “2G8 series 57: disulfide-linked homodimer of monomer SEQ ID NO: 57 (HAEGTFTCDVSSYLEGQAAXEFIAWLVRGRG; disulfide-linked homodimer; Sequence is synthesized; (20)..(20) Xaa is 26Lys[N-e-(N-a-palmitoyl-L-g-glutamyl)]; (31)..(31) N-terminal)” to “2G4 series 27: disulfide-linked homodimer of monomer SEQ ID NO: 27 (HAEGTFTSDVCSYLEGQAAXEFIAWLVRGRG; not fully specified; disulfide-linked homodimer; Sequence is synthesized; (20)..(20) Xaa is 26Lys[N-e-(N-a-oleoyl-L-g-glutamyl)]; (31)..(31) N-terminal)”, the “Hypoglycemic duration” value rises from 5 days to 15 days.

In the case of “2G2 series 8: disulfide-linked homodimer of monomer SEQ ID NO: 8 (HAEGTFTSDVCSYLEGQAAXEFIAWLVRGRG; not fully specified; disulfide-linked homodimer; Sequence is synthesized; (20)..(20) Xaa is Xaa is 26Lys[N-e-(N-a-Palmitoyl-g-glutamyl)]; (31)..(31) N-terminal)”, the “Hypoglycemic duration” value was 7 days.
